ChEMBL document CHEMBL1148778, “Synthesis and characterization of nonsteroidal glucocorticoid receptor modulators for multiple myeloma” (J Med Chem, 2007)

Legend:
[1] = target: T1, Mineralocorticoid receptor (Homo sapiens) (UniProt P08235); assay: Antagonist activity at mineralocorticoid receptor by MR activation assay; assay type: functional; design: scale not given: the % may be the effect or the level left
T1 sequence (whole entry): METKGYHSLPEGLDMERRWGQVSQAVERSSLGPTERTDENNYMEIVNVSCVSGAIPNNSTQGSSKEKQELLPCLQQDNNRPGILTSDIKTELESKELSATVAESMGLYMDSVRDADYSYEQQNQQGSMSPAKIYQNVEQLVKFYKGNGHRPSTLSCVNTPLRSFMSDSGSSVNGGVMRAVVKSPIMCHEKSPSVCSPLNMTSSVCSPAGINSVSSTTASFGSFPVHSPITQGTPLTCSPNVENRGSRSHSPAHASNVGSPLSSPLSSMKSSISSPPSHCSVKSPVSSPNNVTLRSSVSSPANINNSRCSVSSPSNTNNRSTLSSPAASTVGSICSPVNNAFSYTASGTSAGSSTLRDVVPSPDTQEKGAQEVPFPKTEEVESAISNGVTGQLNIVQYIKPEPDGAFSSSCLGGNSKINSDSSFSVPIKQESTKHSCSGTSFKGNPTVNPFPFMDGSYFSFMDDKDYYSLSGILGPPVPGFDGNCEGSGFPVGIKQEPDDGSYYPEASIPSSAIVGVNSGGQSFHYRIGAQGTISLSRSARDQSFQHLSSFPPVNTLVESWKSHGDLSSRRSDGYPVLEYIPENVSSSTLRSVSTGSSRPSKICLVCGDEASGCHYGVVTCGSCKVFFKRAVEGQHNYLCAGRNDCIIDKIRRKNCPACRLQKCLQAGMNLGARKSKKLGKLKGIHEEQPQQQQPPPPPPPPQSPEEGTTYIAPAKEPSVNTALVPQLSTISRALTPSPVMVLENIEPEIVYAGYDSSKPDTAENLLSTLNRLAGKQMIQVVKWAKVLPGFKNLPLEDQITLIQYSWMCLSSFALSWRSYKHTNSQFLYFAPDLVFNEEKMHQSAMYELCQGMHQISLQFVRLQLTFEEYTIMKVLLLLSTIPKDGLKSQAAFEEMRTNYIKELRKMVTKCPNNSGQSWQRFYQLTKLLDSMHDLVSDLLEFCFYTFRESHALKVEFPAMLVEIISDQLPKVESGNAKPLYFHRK

RPMI-8226 = assay: Inhibition of tumor growth in human RPMI8226 cells xenografted nude mouse at 3 mg/kg, po after 4 weeks relative to Dexamethasone; assay type: functional

Compound	Activity [1] [%]	Efficacy (RPMI-8226) [%]
COCc1ccsc1/C=C1\Oc2ccc(O)c(OC)c2-c2ccc3c(c21)C(C)=CC(C)(C)N3	55	
COc1c(O)ccc2c1-c1ccc3c(c1/C(=C/c1sccc1CO)O2)C(C)=CC(C)(C)N3		29
